Laboratory results reported in patent US11564913B2, “Compositions and methods for treating cancer” (Children's Hospital Medical Center, priority 2019, dated 2023).

Tests used:
[1] = tested on: H2122 lung cancer xenografts; assay: H2122 xenograft mouse model; assay type: in vivo, mice
Text: FIG. 8: IODVA1 inhibits tumor growth of human breast and lung cancer xenografts. […] (B) Tumors were also stained for Ki67 as a proliferation marker (top panel). […] (C) Quantification of Ki67-positive and cleaved caspase 3-positive cells of tumors shown in (B). […] Animals began treatment when tumors became detectable at 10 days post-injection (*, p<0.05). […] IODVA1 treated tumors also had fewer proliferating cells compared to control vehicle treated animals, as determined by immunohistochemical staining for Ki67 (bottom) and increased intratumoral fibrosis. Representative images were taken at 100× magnification, scale bar is 200 μm. (F) Quantification of Ki67+ cells in control and IODVA1 treated tumors shown in (E).
The lung cancer mouse model was generated by injecting the lung cancer H2122 cells at the right and left flanks of NSG mice. These cells harbor the KRAS^G12C mutation and form aggressive tumors. Mice were treated with IODVA1 or with vehicle control every other day for 14 days. […]
Human lung cancer cell line NCI-H2122 (ATCC) harboring biallelic KRAS^G12C mutations were cultured in RPMI-1640 supplemented with 10% FBS. […] Tumor size was measured using digital calipers and tumor volume estimated using the formula (length×width^2)/2. […] A minimum of 20 random fields were used for quantification. […]

MCF10A cells = assay: Spheroid formation, hanging drop method; assay type: cell-based
Method: (§1) FIG. 6: IODVA1 inhibits cell-substratum and cell-cell interactions. (A) IODVA1 impedes spreading of MCF7 and MDA-MB-231 cells on fibronectin. MCF7, T47D, and MDA-MB-231 cells were incubated on fibronectin coated coverslips for 10 min, then further incubated with the indicated concentrations of IODVA1 for 30 min in serum-free media, fixed and observed by bright field microscopy. Areas of single cells were calculated from 6 random fields (no less than 300 cells total per treatment group). Results shown are mean±s.e.m. of a single experiment and are representative of three independent experiments. (B) Effects of IODVA1 treatment on spheroid formation in MCF10A, MCF7, T47D, and MDA-MB-231 cells. Left panel—representative bright field images of hanging drop cultures of MCF10A, MCF7, T47D, and MDA-MB-231 cells grown in the absence (0 μM) and presence of IODVA1 (1 μM) prior to and post mechanical pipetting (trituration). Scale bar=200 μm. Right panel, changes in spheroid/aggregate size due to IODVA1 treatment indicated by the diameter of the spheroids. Results shown are mean±stdev, N=15. (C) IODVA1 treatment reduces proliferation capacity in adhesion-free environment. MCF7, T47D, and MDA-MB-231 cells were grown in complete media in the presence of IODVA1 or vehicle control in ultra-low attachment plates for 5 days. Aggregates and spheroids were dissociated with accutase and trituration, and the number of live cells was determined by trypan blue exclusion. Results shown are combined mean±stdev of two independent experiments. n.s.—not significant, *-p<0.05, **-p<0.01, ***-p<0.001, ****-p<0.0001.
(§2) In vitro 3D assays, such as spheroid formation, serve as an intermediate between 2D (monolayer) cellular assays and in vivo animal models. Spheroid formation is mediated by matrix development and remodeling and changes in the cytoskeleton and cell-cell contacts and adhesion. To evaluate the effect of IODVA1 on spheroid formation, single cell suspension were plated in complete media containing vehicle control or IODVA1 at 0.1-3 μM range using the hanging drop and ultra-low attachment (ULA) methods (Foty R. 2011). […]
(§3) Spheroids were formed by the hanging drop method or using ultra-low attachment (ULA) plates (Corning). […] Spheroid formation was monitored daily and imaged using EVOS microscope (Life Technologies). For assessment of attachment-free proliferation, the contents of the well were transferred into an Eppendorf tube, centrifuged at 100×g for 5 min, dissociated into a single cell suspension using trituration and Accutase (Invitrogen) treatment at room temperature and counted using trypan blue exclusion.

MCF7 cells = assay: Spheroid formation, hanging drop method; assay type: cell-based; settings: 1 μM
Method: as §1, §2, §3

T47D cells = assay: Spheroid formation, hanging drop method; assay type: cell-based; settings: 1 μM
Method: as §1, §2, §3

Q: What does the source list for OC1(c2ccccn2)N=C(Nc2nc3ccccc3[nH]2)N=C1c1ccccn1 (stereo not drawn) [IODVA1, (Z)-2-((1H-benzo[d]imidazol-2-yl)imino)-4,5-di(pyridin-2-yl)-2,5-dihydro-1H-imidazol-5-ol]?
A: tumor volume ([1]; IP 250 μl of 1 mM every other day for 14 days): significant decrease; number of Ki67-positive tumor cells ([1]; IP every other day for 14 days): significant decrease; effect on spheroids (MCF10A cells): No effect; spheroids after mechanical disruption by pipetting (MCF7 cells): complete dissociation; spheroid size (MCF7 cells; 96 h): formed smaller spheroids; spheroid formation (T47D cells): failed to form packed spheroids
